From ChEMBL document CHEMBL5107998, “Structure-Activity relationship of 1-(Furan-2ylmethyl)Pyrrolidine-Based Stimulation-2 (ST2) inhibitors for treating graft versus host disease” (Bioorg Med Chem, 2022) come the findings set out here.

Series [1] in a line: Metabolic stability in pooled human liver microsomes assessed as half life at 1 uM incubated for 60 mins in presence of NADPH by LC-MS/MS analysis. The class given is ADME, Microsome.
For another series, the system named is CD4+ve Th. The series is described as follows: Inhibition of cell proliferation in C57BL/6 mouse spleen CD4-positive T cells at 1 to 10 uM incubated for 7 days in presence of T cell-depleted and irradiated splenocytes from allogeneic C3H.SW mouse by mixed lymphocyte reaction assay. As to conditions: dose 1-10 µM, time 7.0 day. The class given is functional, cell-based.

Series [2] can be described thus: Half life in CD-1 mouse at 40 mg/kg, ip measured for 7 hrs by LC-MS/MS analysis. It counts as ADME, organism-based. As to conditions: in vivo.
The test system of another series is CD8-positive T cell. The experiment in a line: Inhibition of cell proliferation in C57BL/6 mouse spleen CD8-positive T cells at 1 to 10 uM incubated for 7 days in presence of T cell-depleted and irradiated splenocytes from allogeneic C3H.SW mouse by mixed lymphocyte reaction assay. It counts as functional, cell-based. As to conditions: dose 1-10 µM, time 7.0 day.

Series [3] can be described thus: Inhibition of ST2/IL-33 (unknown origin) interaction incubated for 1 hr by AlphaLISA assay. More on the design: species or system Homo sapiens. Background: Bead proximity is the source of the signal in Alpha formats.
The subject of a further series is T-cell. The series is described as follows: Induction of expansion of C57BL/6 mouse tolerogenic CD4-positive […] regulatory T cells incubated for 7 days in presence of T cell-depleted and irradiated splenocytes from allogeneic C3H.SW mouse by mixed lymphocyte reaction assay. The class given is functional, cell-based. Conditions: dose 1-10 µM, time 7.0 day, DDE = dose-dependent effect.

Series [4] can be described thus: Inhibition of ST2/IL-33 (unknown origin) interaction in HEK-Blue IL-33 cells assessed as reduction in NF-kapaB activation by measuring SEAP reporter level incubated for 20 hrs by QUANTI-Blue reagent based assay. As to conditions: Homo sapiens, HEK-Blue IL-33, 20 h. It counts as cell-based.
Series [5] is described as follows: Cytotoxicity against HEK-Blue IL-33 cells assessed as reduction in cell viability at upto 333 uM incubated for 20 hrs by CellTiter 96 aqueous one solution cell proliferation assay. Conditions: human, hek-blue il-33, 20 h. The class given is toxicity, cell-based.
Series [6] can be described thus: Metabolic stability in pooled CD-1 mouse liver microsomes assessed as half life at 1 uM incubated for 60 mins in presence of NADPH by LC-MS/MS analysis. The class given is ADME, Microsome. A general note: Microsomes from liver hold many membrane-bound enzymes, among them those of drug oxidation.
A short description of series [7]: Reduction in expansion of C57BL/6 mouse tolerogenic CD4-positive […] regulatory T cells at 1 to 10 uM incubated for 7 days in presence of T cell-depleted and irradiated splenocytes from allogeneic C3H.SW mouse by mixed lymphocyte reaction assay relative to control. Further details: scale not given: the % may be the effect or the level left. The class given is functional. Conditions: dose 1-10 µM, time 7 day.

Activity calls are given as the source filed them. No cut-off for these calls is given here.

What is called half-life is the time in which the quantity being followed falls by half. A word on the IC50: it is the midpoint of a concentration-inhibition curve. Turning to `CN(C)c1ccc(C2CCCN2Cc2ccc(-c3ccccc3[N+](=O)[O-])o2)cc1` (centres undefined), the half-life at 1 µM in series [1] came to 2.54 min; in [6], 0.95 min. Besides, the inhibition entry in the series on CD4+ve Th and in the series with CD8-positive T cell was “Active” throughout. In series [2], the t1/2 worked out at 224 min. Further, the figures for the IC50 in series [3] and in series [4] were 19.6 µM and 33.3 µM, respectively. Moreover, the results for the Activity entry (in the series with T-cell; in series [5]) were “Dde” and “Non-Toxic”, respectively.
In the case of `Cc1ccc([N+](=O)[O-])c(-c2ccc(CN3CCCC3c3ccc(N(C)C)cc3)o2)c1` (centres undefined), the half-maximal inhibitory concentration (IC50) came to 8.06 µM in series [3] and 39.1 µM in series [4]. Also, in series [5], the Activity entry is reported as “Non-Toxic”. The half-life at 1 µM in series [6] was 0.89 min.
In the case of `Cc1cc([N+](=O)[O-])ccc1-c1ccc(CN2CCCC2c2cccc(N(C)C)c2)o1` (centres undefined), the results for the half-life at 1 µM in [1] and in series [6] were 4.7 min and 4.2 min, respectively. Moreover, the IC50 in series [3] amounted to 6.12 µM.
In the case of `O=[N+]([O-])c1ccccc1-c1ccc(CN2CCCC2c2cccc(N3CCCC3)c2)o1` (centres undefined), the half-life at 1 µM in series [1] is 2.27 min; in series [6], 5.61 min. In addition, the IC50 in series [3] was found to be 6.42 µM; in series [4] it was 85.3 µM.
For `CN(C)c1ccc(C2CCCN2Cc2ccc(-c3ccc(Cl)cc3[N+](=O)[O-])o2)cc1` (centres undefined), the midpoint of inhibition in [3], the IC50, lay at 21.2 µM.
Still for that read-out and setting: under `COc1ccc(C2CCCN2Cc2ccc(-c3ccccc3C(=O)O)o2)cc1` (centres undefined) stands 220 µM.
As for `O=C(O)c1ccc(C2CCCN2Cc2ccc(-c3ccccc3[N+](=O)[O-])o2)cc1` (centres undefined), in series [7], the Activity is on record as 10%. Also, the IC50 in [3] turned out to be 80.9 µM.
`Cc1cc([N+](=O)[O-])ccc1-c1ccc(CN2CCC[C@H]2c2ccc(N(C)C)cc2)o1`: the values for the IC50 in series [3] and in series [4] were 6.31 µM and 42.5 µM, respectively.
Turning to `COc1ccc(C2CCCN2Cc2ccc(-c3ccccc3[N+](=O)[O-])o2)cc1` (centres undefined), the half-life at 1 µM in series [1] came to 1.1 min; in series [6], 0.73 min. Moreover, in [2], the t1/2 is 85.8 min. The IC50 came to 46.6 µM in [3] and 56.4 µM in [4].
In [3], `COc1ccc(C2CCCN2Cc2ccc(-c3ccccc3C#N)o2)cc1` (centres undefined) came in with an IC50 of 116 µM.
Take `CN(C)c1cccc(C2CCCN2Cc2ccc(-c3ccccc3[N+](=O)[O-])o2)c1` (centres undefined): the results for the half-life at 1 µM in series [1] and in series [6] were 0.57 min and 0.78 min, respectively. Also, the IC50 stood at 5.46 µM in [3] and 44.7 µM in series [4].
The compound `COc1ccc(C2CCCN2Cc2ccc(-c3cccc([N+](=O)[O-])c3)o2)cc1` (centres undefined) had an IC50 in series [3] of 35.4 µM.
`COc1ccc(C2CCCN2Cc2ccc(-c3ccc([N+](=O)[O-])cc3)o2)cc1` (centres undefined) registered an IC50 in [3] of 22.1 µM.
For `COc1ccc(-c2ccc(CN3CCC[C@H]3c3ccc(N(C)C)cc3)o2)c([N+](=O)[O-])c1`, the results for the 50% inhibitory concentration (IC50) in series [3] and in series [4] were 6.6 µM and 30.6 µM, respectively.
Take `COc1cccc(C2CCCN2Cc2ccc(-c3ccccc3[N+](=O)[O-])o2)c1` (centres undefined): the IC50 in series [3] is 26.7 µM.
As for `O=[N+]([O-])c1ccccc1-c1ccc(CN2CCCC2c2ccc(N3CCCCC3)cc2)o1` (centres undefined), the half-life at 1 µM was 1.95 min in [1] and 1.29 min in series [6]. For the same compound, the IC50 in series [3] was 21.5 µM; in [4], 53.8 µM.
Consider `COc1ccc(-c2ccc(CN3CCCC3c3ccc(N(C)C)cc3)o2)c([N+](=O)[O-])c1` (centres undefined), for which the IC50 was 12.3 µM in series [3] and 48.5 µM in series [4]. In [5], the Activity result was “Non-Toxic”.
With `Cc1cc([N+](=O)[O-])ccc1-c1ccc(CN2CCCC2c2ccc(N(C)C)cc2)o1` (centres undefined), the half-life at 1 µM in series [1] amounted to 13.7 min; in series [6], 3.64 min. Besides, the t1/2 in series [2] stood at 92.4 min. Besides, the IC50 in series [3] was 7.73 µM; in [4], 42.5 µM.
As for `CN(C)Cc1cccc(C2CCCN2Cc2ccc(-c3ccccc3[N+](=O)[O-])o2)c1` (centres undefined), the IC50 in series [3] was determined as 54.3 µM.
On the same count and under the same terms, in the case of `COc1ccc(C2CCCN2Cc2ccc(-c3ccccc3C(N)=O)o2)cc1` (centres undefined) it was 167 µM.
`Cc1cc([N+](=O)[O-])ccc1-c1ccc(CN2CCC[C@@H]2c2ccc(N(C)C)cc2)o1`: the IC50 in series [3] was 8.11 µM; in series [4], 53.1 µM.
Compound `O=[N+]([O-])c1ccccc1-c1ccc(CN2CCCC2c2ccccc2)o1` (centres undefined) had an IC50 in [3] of 97.6 µM.
With `COc1ccc(-c2ccc(CN3CCC[C@@H]3c3ccc(N(C)C)cc3)o2)c([N+](=O)[O-])c1`, the IC50 in series [3] worked out at 10.4 µM; in [4] it was 56.4 µM.
Take `Cc1ccc(-c2ccc(CN3CCCC3c3ccc(N(C)C)cc3)o2)c([N+](=O)[O-])c1` (centres undefined): the IC50 in series [3] stood at 9.11 µM; in [4], 41.4 µM. In addition, the Activity result in series [5] is on record as “Non-Toxic”.
`O=[N+]([O-])c1ccccc1-c1ccc(CN2CCCC2c2ccc3c(c2)OCCO3)o1` (centres undefined) came in with an IC50 in series [3] of 29.4 µM.
On the same count and under the same terms, in the case of `COC(=O)c1ccc(C2CCCN2Cc2ccc(-c3ccccc3[N+](=O)[O-])o2)cc1` (centres undefined) it was 20.6 µM; in that of `COc1ccccc1C1CCCN1Cc1ccc(-c2ccccc2[N+](=O)[O-])o1` (centres undefined), 23.4 µM; in that of `COc1ccc(C2CCCN2Cc2ccc(-c3ccccc3F)o2)cc1` (centres undefined), 115 µM.
The same measure, in the same setting: in the case of `COC(=O)Cc1cccc(C2CCCN2Cc2ccc(-c3ccccc3[N+](=O)[O-])o2)c1` (centres undefined) it was 53 µM.
Same read-out and setting: under `O=[N+]([O-])c1ccccc1-c1ccc(CN2CCCC2c2cccc(N3CCCCC3)c2)o1` (centres undefined) stands 7.14 µM.
Regarding `O=[N+]([O-])c1ccccc1-c1ccc(CN2CCCC2c2ccc(N3CCCC3)cc2)o1` (centres undefined), the half-life at 1 µM in series [1] came out at 10.1 min; in series [6], 2.67 min. The IC50 in [3] was 12.9 µM; in series [4], 62 µM. In addition, in series [5], the Activity result is reported as “Non-Toxic”.
